From patent publication US11964986B1, “9-oxo-9,10-dihydro-6H-pyrano[3,2-b:4,5-b′]dipyridine-8-carboxylic acid derivatives” (REJUVERON TELOMERE THERAPEUTICS AG, priority 2023, dated 2024)
In brackets after ≈: the same amount, converted by molar mass. Like-named read-outs stand apart in the source and are kept apart here.

Columns and labels:
[1] = tested on: HBsAg secretion in HepG2/2.2.15 WT cells (combined effect of PAPD5 and PAPD7 inhibition)
Experimental: (§1) The hepatocarcinoma HepG2/2.2.15 cell line (hereafter referred to as wild type) was obtained from Millipore (SCC249) and HepG2/2.2.15 PAPD5 knock-out (PAPD5 KO) and PAPD7 knock-out (PAPD7 KO) cells were generated using CRISPR/Cas9 technology.
An ELISA was performed using a hepatocarcinoma HepG2/2.2.15 wild type (WT) cell line to assess the potential of the compounds of the present invention as treatments of chronic HBV infection.
(§2) Cell seeding and addition of the compounds: On day −1, HepG2/2.2.15 cell lines were seeded in U-bottom 96-well plates (Fisher Scientific, 10777241) at a density of 1,5×10^4 cells/well in a final volume of 200 μL complemented DMEM/F12. On day 0, medium was aspirated and cells were washed once with PBS (300 μL/well). Then, PBS was replaced with complemented DMEM/F12 (200 μL/well). Using a Tecan-TE300e chemical dispenser, the compounds were added to the cells with 11 half-log incremental dilutions in dimethyl sulfoxide (DMSO) (Sigma-Aldrich, 276855) within the highest concentration equal to 25 μM (concentration range 1). DMSO was used as no-drug control, and the final DMSO concentration in all wells was 0.5%. […] On day 4, the 96-well plate was centrifuged for 5 min at 300 g to spin down cell debris. 100 μL/well of cell culture supernatant were collected and diluted 1:2 with 100 μL of complemented DMEM/F12 to perform the ELISA.
(§3) ELISA: Before starting, the “Hepatitis B surface antigen ELISA kit” (Abnova, KA0286) was equilibrated at room temperature (RT) for 1 h. […] The anti-HB plate was sealed using adhesive foil provided with the kit and incubated for 1 h at 37° C. […] After the last wash, the residual liquid was removed by turning the plate upside down and tapping on adsorbent paper. TMB substrate solutions A and B were mixed in equal volumes and 100 μL/well of this mixture were added to each well. The plate was covered with the supplied tray and incubated at RT for 20 min. During this time, a color develops in proportion to the amount of HBsAg bound to anti-HBs. After incubation, the reaction was stopped by adding 100 μL/well of 2N aqueous H2SO4 solution. The optical density of the developed color was read at 450 nm using a Cytation 5 instrument with reference wavelength at 620 nm.
(§4) CCK8 viability assay: Viability of HepG2/2.2.15 WT, PAPD5 KO and PAPD7 KO cell lines treated with the compounds was determined using the Cell Counting Kit-8 (CCK8, Sigma-Aldrich, 96992) following the manufacturer's instructions. […] During this time, WST-8 is reduced by dehydrogenases in cells to give a yellow-colored product (formazan), which is soluble in the tissue culture medium. The amount of the formazan dye generated by the activity of dehydrogenases in cells is directly proportional to the number of living cells. After 1 h incubation, the optical density of the developed color was read at 450 nm using a Cytation 5 instrument with the reference wavelength at 620 nm. CCK8 optical density values were used for normalization of the ELISA results.
To determine the IC50 values, the amount of HBsAg (optical density values of the ELISA) was corrected by the number of living cells (CCK8 optical density) per each well. Normalized HBsAg values were used to generate a dose-response curve with a non-linear regression model and applying the Levenberg-Marquardt algorithm. The percentage of inhibition was calculated relative to the untreated condition (DMSO CTRLs).

PAPD5 [2] = biological target: T1, PAPD5 (Homo sapiens, UniProt Q8NDF8); test: cell-based; set-up: endogenous in cells; host or cells: HepG2/2.2.15 PAPD7 knock-out cells (CRISPR/Cas9); conditions: for Fold sel. for PAPD5 over PAPD7: PAPD7 KO cells vs PAPD5 KO cells
T1 sequence (Q8NDF8 whole entry): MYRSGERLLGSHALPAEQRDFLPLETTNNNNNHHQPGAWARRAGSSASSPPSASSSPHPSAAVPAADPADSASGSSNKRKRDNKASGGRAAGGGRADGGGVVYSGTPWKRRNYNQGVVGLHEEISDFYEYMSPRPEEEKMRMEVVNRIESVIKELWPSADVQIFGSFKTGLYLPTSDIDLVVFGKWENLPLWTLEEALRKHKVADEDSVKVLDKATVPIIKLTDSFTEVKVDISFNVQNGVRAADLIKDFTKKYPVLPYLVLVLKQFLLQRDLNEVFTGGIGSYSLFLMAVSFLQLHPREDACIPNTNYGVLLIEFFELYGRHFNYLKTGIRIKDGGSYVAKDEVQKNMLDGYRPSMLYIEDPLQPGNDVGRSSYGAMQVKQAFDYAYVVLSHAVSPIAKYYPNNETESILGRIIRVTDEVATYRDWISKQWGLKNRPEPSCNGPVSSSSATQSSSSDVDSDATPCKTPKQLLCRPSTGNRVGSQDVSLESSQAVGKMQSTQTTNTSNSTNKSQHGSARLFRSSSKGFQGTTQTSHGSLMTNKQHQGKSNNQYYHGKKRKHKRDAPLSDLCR
Experimental: as §1
To this end, all compounds of the present invention were also tested in an ELISA on HepG2/2.2.15 PAPD5 and PAPD7 KO cell lines to determine the compounds' potency to inhibit PAPD5 and their selectivity for PAPD5 over PAPD7.
as §2, §3, §4
To determine the IC50 values, the amount of HBsAg (optical density values of the ELISA) was corrected by the number of living cells (CCK8 optical density) per each well. Normalized HBsAg values were used to generate a dose-response curve with a non-linear regression model and applying the Levenberg-Marquardt algorithm.

PAPD7 = PAPD7 (Homo sapiens, UniProt Q5XG87); test: HBsAg ELISA in HepG2/2.2.15 PAPD5 KO cells (PAPD7 inhibitory activity); type: cell-based; conditions: Table 3, HBsAg secretion, 4 days, read-out: pIC50 PAPD7 (PAPD5 KO cells) (converted)
Sequence of PAPD7 (Q5XG87 whole entry): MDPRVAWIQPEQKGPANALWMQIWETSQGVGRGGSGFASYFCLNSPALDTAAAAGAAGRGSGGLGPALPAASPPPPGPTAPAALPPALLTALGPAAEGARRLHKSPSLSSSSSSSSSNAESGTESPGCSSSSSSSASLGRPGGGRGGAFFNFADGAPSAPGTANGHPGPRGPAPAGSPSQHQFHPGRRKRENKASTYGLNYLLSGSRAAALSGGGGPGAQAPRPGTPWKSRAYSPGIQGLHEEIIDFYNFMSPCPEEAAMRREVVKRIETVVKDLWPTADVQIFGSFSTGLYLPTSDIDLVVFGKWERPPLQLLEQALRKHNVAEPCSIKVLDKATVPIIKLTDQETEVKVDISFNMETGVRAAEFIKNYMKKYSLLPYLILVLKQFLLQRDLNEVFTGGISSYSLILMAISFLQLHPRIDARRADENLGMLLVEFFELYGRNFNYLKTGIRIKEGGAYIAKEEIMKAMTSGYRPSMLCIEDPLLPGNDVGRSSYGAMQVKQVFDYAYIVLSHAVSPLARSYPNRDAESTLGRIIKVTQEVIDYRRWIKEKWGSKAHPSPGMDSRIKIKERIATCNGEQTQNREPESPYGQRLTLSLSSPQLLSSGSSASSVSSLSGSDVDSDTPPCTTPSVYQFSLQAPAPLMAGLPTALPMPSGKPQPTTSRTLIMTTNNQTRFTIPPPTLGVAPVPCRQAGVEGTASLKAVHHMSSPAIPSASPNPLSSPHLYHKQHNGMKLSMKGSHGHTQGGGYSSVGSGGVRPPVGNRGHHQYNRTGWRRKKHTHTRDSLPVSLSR

HBsAg = conditions: Table 4; effective concentration that achieved 50% inhibitory effect; from WO2019177937; cited from earlier work
[3] = tested on: telomere length in patient-derived iPSCs; test: Telomere restriction fragment (TRF) analysis in patient-derived iPSCs; conditions: for telomere elongation: 4-week treatment, increasing concentrations, FIG. 2B
Experimental: Healthy donor- and patient-derived induced Pluripotent Stem Cells (iPSCs), described in Moon et al. 2015, were cultured in feeder-free condition using Matrigel hESC-qualified matrix (Corning, 354277) coated cell culture dishes. For coating, one aliquot of Corning Matrigel hESC-qualified matrix (approximately 300 μL) was thawed on ice and diluted in 25 mL ice-cold DMEM/F-12. […] The coating solution was kept on ice and Matrigel was handled using ice-cold pipette tips. 6 mL of the coating solution were added to one 10 cm cell culture dish and spread by gentle rocking. The coated dishes were then incubated at RT for at least 30 min to let the matrix solidify. The coating solution was aspirated from the dishes and cells were seeded immediately. […] Cells were incubated shortly at 37° C. and the colonies were briefly disaggregated by gentle pipetting or by agitation. The single cell suspension was transferred in a canonical tube with cold 1× PBS and centrifuged at 300 g for 5 min to remove Accutase. Cell pellet was resuspended in an appropriate volume of complemented Essential E8 medium and seeded in a Matrigel-coated dish according to the split ratio.
The scope of this assay is to isolate telomeric DNA from healthy donor- and patient-derived iPSCs and determine the average length of isolated telomeres.
The compounds were dissolved in DMSO at a 10 mM stock concentration and diluted in complemented Essential E8 medium at the reported concentrations (Table 6). For untreated samples (0 nM) DMSO only was added to the medium. Culture medium with the diluted compound was replaced daily, and cells were subcultured as described above.
To carry out the cellular assays, cells were cultured in the presence of PAPD5 inhibitors and collected at different time points. […] (2) At week 4 (Day 28), cells were harvested for DNA isolation to perform Telomere Restriction Fragment (TRF) analysis. […]
Genomic DNA extraction: At day 28 of exposure, 2×10^6 iPSCs per condition were pelleted and resuspended in 200 μl PBS. […] DNA quantification was performed using a Qubit dsDNA BR quantification kit. […]

[4] = Plasma protein binding (fraction unbound)
Text: (§5) In the ELISA 10% plasma protein (p=0.1) is used, whereas the assays using iPSCs are run in a plasma protein-free medium.

[5] = tested on: TERC in patient-derived iPSCs; test: TERC stability by RLM-RACE in patient-derived iPSCs; conditions: 1-week treatment, FIG. 2A
Experimental: For coating, one aliquot of Corning Matrigel hESC-qualified matrix (approximately 300 μL) was thawed on ice and diluted in 25 mL ice-cold DMEM/F-12. […] The coating solution was kept on ice and Matrigel was handled using ice-cold pipette tips. 6 mL of the coating solution were added to one 10 cm cell culture dish and spread by gentle rocking. The coated dishes were then incubated at RT for at least 30 min to let the matrix solidify. The coating solution was aspirated from the dishes and cells were seeded immediately. […] Cells were incubated shortly at 37° C. and the colonies were briefly disaggregated by gentle pipetting or by agitation. The single cell suspension was transferred in a canonical tube with cold 1× PBS and centrifuged at 300 g for 5 min to remove Accutase. Cell pellet was resuspended in an appropriate volume of complemented Essential E8 medium and seeded in a Matrigel-coated dish according to the split ratio.
The compounds were dissolved in DMSO at a 10 mM stock concentration and diluted in complemented Essential E8 medium at the reported concentrations (Table 6). […]
Samples were spun at 12000 g for 10 min at 4° C. […] The RNA concentration was measured using a Qubit HS RNA quantification kit (Thermo Fisher, Q32852). […]
DNA was stored overnight at −20° C. before loading on agarose gel. PCR products were quantified using a Qubit dsDNA BR quantification kit (Thermo Fisher, Q32850). […]

PAPD5 [6] = biological target: T1, PAPD5; test: Degree of PAPD5 target engagement calculated for test concentrations in assays using iPSCs; set-up: endogenous in cells
Text: as §5

logD(pH 7.4) = type: physicochemical
[7] = kinetic solubility assay at pH 6.5; type: physicochemical; conditions: for solubility kinetic: pH 6.5, kinetic from dmso stock
[8] = Table 3, HepG2/2.2.15 PAPD7 KO cells, HBsAg secretion, 4 days, read-out: pIC50 PAPD5 (PAPD7 KO cells) (converted)
[9] = Table 5, PAPD7 KO cells, read-out: PIC50 PAPD5 (PAPD7 KO cells) (converted)
[10] = PAPD5 IC50 by ELISA, HepG2/2.2.15 PAPD7 KO cell line, 10% plasma protein, read-out: IC50ELISA
[11] = unbound IC50 in protein-free medium, IC50ELISA*fu,ELISA, read-out: IC50u

With `COCCCOc1cc2c(nc1C1CC1)-c1c(cc(C(=O)O)c(=O)n1C1CC1)C(C(C)(C)C)O2` (racemic) [Example 508, (RS)-6-(tert-butyl)-2,10-dicyclopropyl-3-(3-methoxypropoxy)-9-oxo-9,10-dihydro-6H-pyrano[3,2-b:4,5-b′]dipyridine-8-carboxylic acid] the IC50 [1] was 0.0631 nM, the IC50 (PAPD5 [2]; [8]) was 0.1 nM and the “Fold sel. for PAPD5 over PAPD7” value (PAPD5 [2]; Table 3) was 1.0 Fold. For the same compound, the IC50 (PAPD7) was 0.1 nM.
Work on `COCCCOc1cc2c(cc1OC)-c1c(cc(C(=O)O)c(=O)n1C1CC1)C(C(C)(C)C)O2` (racemic) [Example 802, (RS)-5-(tert-Butyl)-1-cyclopropyl-9-methoxy-8-(3-methoxypropoxy)-2-oxo-1,5-dihydro-2H-chromeno[4,3-b]pyridine-3-carboxylic acid, reference compound] yielded an IC50 [1] of 1 nM.
For “(RS)-6-Isopropyl-2-methoxy-3-(3-methoxypropoxy)-9-oxo-9,10-dihydro-6H-pyrano[3,2-b:4,5-b′]dipyridine-8-carboxylic acid [Example 501]”, the EC50 (HBsAg) is given as 94 nM.
In the case of `CCn1c2c(cc(C(=O)O)c1=O)C(C(C)C)Oc1cc(OCCCOC)c(OC)nc1-2` (racemic) [Example 503, (RS)-10-Ethyl-6-isopropyl-2-methoxy-3-(3-methoxypropoxy)-9-oxo-9,10-dihydro-6H-pyrano[3,2-b:4,5-b′]dipyridine-8-carboxylic acid], the IC50 [1] is reported as 1.26 nM, the IC50 (PAPD5 [2]; [8]) is reported as 1 nM and the “Fold sel. for PAPD5 over PAPD7” value (PAPD5 [2]; Table 3) is reported as 5.9 Fold. It also gave an IC50 (PAPD7) of 5.01 nM.
For `COCCCOc1cc2c(nc1OC)-c1c(cc(C(=O)O)c(=O)n1C)C(C(C)C)O2` (racemic) [Example 502, (RS)-6-Isopropyl-2-methoxy-3-(3-methoxypropoxy)-10-methyl-9-oxo-9,10-dihydro-6H-pyrano[3,2-b:4,5-b′]dipyridine-8-carboxylic acid], the IC50 [1] was 6.31 nM and the IC50 (PAPD7) was 12.6 nM.
`COCCCOc1cc2c(nc1OC)-c1c(cc(C(=O)O)c(=O)n1C1CC1)C(C(C)(C)C)C2` (racemic) [Example 702, (RS)-5-(tert-Butyl)-1-cyclopropyl-9-methoxy-8-(3-methoxypropoxy)-2-oxo-1,2,5,6-tetrahydro-1,10-phenanthroline-3-carboxylic acid, reference compound] gave an IC50 [1] of 2.51 nM and an IC50 (PAPD5 [2]; [9]) of 3.16 nM.
For `COCCCOc1cc2c(nc1OC)-c1c(cc(C(=O)O)c(=O)n1CC(F)F)C(C(C)C)O2` (racemic) [Example 511, (RS)-10-(2,2-Difluoroethyl)-6-isopropyl-2-methoxy-3-(3-methoxypropoxy)-9-oxo-9,10-dihydro-6H-pyrano[3,2-b:4,5-b′]dipyridine-8-carboxylic acid], the IC50 [1] was 1.26 nM, the IC50 (PAPD5 [2]; [8]) was 0.794 nM and the “Fold sel. for PAPD5 over PAPD7” value (PAPD5 [2]; Table 3) was 6.9 Fold. For the same compound, the IC50 (PAPD7) was 5.01 nM.
For `COCCCOc1cc2c(nc1OC)-c1[nH]c(=O)c(C(=O)O)cc1C1(CCCC1)O2` [Example 509, 2′-Methoxy-3′-(3-methoxypropoxy)-9′-oxo-9′,10′-dihydrospiro[cyclopentane-1,6′-pyrano[3,2-b:4,5-b′]dipyridine]-8′-carboxylic acid], the IC50 [1] was 25.1 nM, the IC50 (PAPD5 [2]; [8]) was 31.6 nM and the “Fold sel. for PAPD5 over PAPD7” value (PAPD5 [2]; Table 3) was 10.4 Fold. It also gave an IC50 (PAPD7) of 316 nM.
For `COCCCOc1cc2c(nc1OC)-c1c(cc(C(=O)O)c(=O)n1C1CC1)C(C(C)(C)C)O2` (racemic) [Example 506, (RS)-6-(tert-Butyl)-10-cyclopropyl-2-methoxy-3-(3-methoxypropoxy)-9-oxo-9,10-dihydro-6H-pyrano[3,2-b:4,5-b′]dipyridine-8-carboxylic acid], the “telomere length after elongation” value ([3]; 0.5 nM, 4 weeks of treatment) was “up to 8 kb”, the telomere elongation [3] was “dose-dependently effects telomere elongation” and the fraction unbound [4] was 0.347. For the same compound, the fraction unbound ([4]; fu, ELISA, fraction unbound in ELISA, calculated with p = 0.1) was 0.84, the IC50 [1] was 0.2 nM and the “levels of the mature and stable form of TERC” value [5] was “restores the steady-state and physiological levels of the mature and stable form of TERC”. For the same compound, the IC50 (PAPD5 [2]; [10]) was 0.0847 nM, the “Fold sel. for PAPD5 over PAPD7” value (PAPD5 [2]; Table 3) was 6.1 Fold and the IC50 (PAPD5 [2]; [9]) was 0.0794 nM. For the same compound, the IC50 (PAPD5 [2]; [11]) was 0.07 nM, the IC50 (PAPD7) was 0.501 nM and the “% Target engagement (X)” value (PAPD5 [6]; test conc. 0.1 nM) was 54%. The “% Target engagement (X)” value (PAPD5 [6]; test conc. 0.5 nM) was 86% and the “% Target engagement (X)” value (PAPD5 [6]; test conc. 2.5 nM) was 97%.
For `COCCCOc1cc2c(nc1OC)-c1c(cc(C(=O)O)c(=O)n1CCO)C(C(C)C)O2` (racemic) [Example 510, (RS)-10-(2-Hydroxyethyl)-6-isopropyl-2-methoxy-3-(3-methoxypropoxy)-9-oxo-9,10-dihydro-6H-pyrano[3,2-b:4,5-b′]dipyridine-8-carboxylic acid], the IC50 [1] was 15.8 nM, the IC50 (PAPD5 [2]; [8]) was 5.01 nM and the “Fold sel. for PAPD5 over PAPD7” value (PAPD5 [2]; Table 3) was 6.4 Fold. For the same compound, the IC50 (PAPD7) was 31.6 nM.
With `COCCCOc1cc2c(nc1OC)-c1c(cc(C(=O)O)c(=O)n1C1CC1)C(C(C)C)O2` (racemic) [Example 504, (RS)-10-Cyclopropyl-6-isopropyl-2-methoxy-3-(3-methoxypropoxy)-9-oxo-9,10-dihydro-6H-pyrano[3,2-b:4,5-b′]dipyridine-8-carboxylic acid] the IC50 [1] was 0.501 nM, the IC50 (PAPD5 [2]; [8]) was 0.631 nM and the “Fold sel. for PAPD5 over PAPD7” value (PAPD5 [2]; Table 3) was 4.8 Fold. It also gave an IC50 (PAPD7) of 2.51 nM.
For `COCCCOc1cc2c(cc1OC)-c1[nH]c(=O)c(C(=O)O)cc1C(C(C)(C)C)O2` (racemic) [Example 801, (RS)-5-(tert-Butyl)-9-methoxy-8-(3-methoxypropoxy)-2-oxo-1,5-dihydro-2H-chromeno[4,3-b]pyridine-3-carboxylic acid, reference compound], the IC50 [1] was 39.8 nM and the IC50 (PAPD5 [2]; [9]) was 50.1 nM.
In the case of `COCCCOc1cc2c(nc1C1CC1)-c1[nH]c(=O)c(C(=O)O)cc1C(C(C)(C)C)O2` (racemic) [Example 507, (RS)-6-(tert-Butyl)-2-cyclopropyl-3-(3-methoxypropoxy)-9-oxo-9,10-dihydro-6H-pyrano[3,2-b:4,5-b′]dipyridine-8-carboxylic acid], the IC50 [1] is reported as 0.794 nM, the IC50 (PAPD5 [2]; [8]) is reported as 0.398 nM and the “Fold sel. for PAPD5 over PAPD7” value (PAPD5 [2]; Table 3) is reported as 1.8 Fold. The IC50 (PAPD7) was 0.631 nM.
In the case of `COCCCOc1cc2c(nc1OC)-c1[nH]c(=O)c(C(=O)O)cc1C(C(C)(C)C)O2` (racemic) [Example 505, (RS)-6-(tert-Butyl)-2-methoxy-3-(3-methoxypropoxy)-9-oxo-9,10-dihydro-6H-pyrano[3,2-b:4,5-b′]dipyridine-8-carboxylic acid], the IC50 [1] is reported as 2 nM, the IC50 (PAPD5 [2]; [8]) is reported as 2 nM and the “Fold sel. for PAPD5 over PAPD7” value (PAPD5 [2]; Table 3) is reported as 4.9 Fold. For the same compound, the IC50 (PAPD5 [2]; [9]) was 2 nM, the IC50 (PAPD7) was 10 nM and the logD (logD(pH 7.4)) was 1.1. For the same compound, the “fold more soluble than example 701” value ([7]; kinetic solubility assay at pH 6.5) was 2.6 fold and the solubility kinetic [7] was 484 µM (≈ 203 µg/mL).
With `COCCCOc1cc2c(nc1OC)-c1[nH]c(=O)c(C(=O)O)cc1C(C(C)(C)C)C2` (racemic) [Example 701, (RS)-5-(tert-Butyl)-9-methoxy-8-(3-methoxypropoxy)-2-oxo-1,2,5,6-tetrahydro-1,10-phenanthroline-3-carboxylic acid, reference compound] the logD (logD(pH 7.4)) was 1.4 and the solubility kinetic [7] was 186 µM (≈ 77.3 µg/mL).
With `COCCCOc1cc2c(cc1OC)-c1cc(=O)c(C(=O)O)cn1[C@H](C(C)C)C2` [RG7834] the telomere elongation [3] was “dose-dependently effects telomere elongation”, the “levels of the mature and stable form of TERC” value [5] was “restores the steady-state and physiological levels of the mature and stable form of TERC” and the “fu, plasma” value was 0.328. For the same compound, the “fu, ELISA” value (plasma) was 0.83, the IC50 (PAPD5 [2]; [10]) was 1.64 nM and the IC50 (PAPD5 [2]; [11]) was 1.35 nM. The “% Target engagement (X)” value (PAPD5 [6]; test conc. 0.3 nM) was 16%, the “% Target engagement (X)” value (PAPD5 [6]; test conc. 1 nM) was 38% and the “% Target engagement (X)” value (PAPD5 [6]; test conc. 3 nM) was 65%. The “% Target engagement (X)” value (PAPD5 [6]; test conc. 10 nM) was 86% and the “% Target engagement (X)” value (PAPD5 [6]; test conc. 30 nM) was 95%.
For `COCCCOc1cc2c(nc1OC)-c1[nH]c(=O)c(C(=O)O)cc1C(C(C)C)O2` (racemic) [Example 501, (RS)-6-Isopropyl-2-methoxy-3-(3-methoxypropoxy)-9-oxo-9,10-dihydro-6H-pyrano[3,2-b:4,5-b′]dipyridine-8-carboxylic acid], the IC50 [1] was 7.94 nM, the IC50 (PAPD5 [2]; [8]) was 6.31 nM and the “Fold sel. for PAPD5 over PAPD7” value (PAPD5 [2]; Table 3) was 7.1 Fold. It also gave an IC50 (PAPD7) of 39.8 nM.
